Results published in the Kinase Knowledgebase extract (Sharma et al. 2016).
pIC50: −log10 of the molar value. “And” between values parts separate entries of the source, which are not always exact repeats. Equal entries are not always repeated.

How the values were obtained:
EGFR (human) [1] = biological target: EGFR (human) (UniProt P00533); settings: a431
EGFR (human) [2] = biological target: EGFR (human) (UniProt P00533)

Chain of EGFR (human) (P00533 whole entry, looked up): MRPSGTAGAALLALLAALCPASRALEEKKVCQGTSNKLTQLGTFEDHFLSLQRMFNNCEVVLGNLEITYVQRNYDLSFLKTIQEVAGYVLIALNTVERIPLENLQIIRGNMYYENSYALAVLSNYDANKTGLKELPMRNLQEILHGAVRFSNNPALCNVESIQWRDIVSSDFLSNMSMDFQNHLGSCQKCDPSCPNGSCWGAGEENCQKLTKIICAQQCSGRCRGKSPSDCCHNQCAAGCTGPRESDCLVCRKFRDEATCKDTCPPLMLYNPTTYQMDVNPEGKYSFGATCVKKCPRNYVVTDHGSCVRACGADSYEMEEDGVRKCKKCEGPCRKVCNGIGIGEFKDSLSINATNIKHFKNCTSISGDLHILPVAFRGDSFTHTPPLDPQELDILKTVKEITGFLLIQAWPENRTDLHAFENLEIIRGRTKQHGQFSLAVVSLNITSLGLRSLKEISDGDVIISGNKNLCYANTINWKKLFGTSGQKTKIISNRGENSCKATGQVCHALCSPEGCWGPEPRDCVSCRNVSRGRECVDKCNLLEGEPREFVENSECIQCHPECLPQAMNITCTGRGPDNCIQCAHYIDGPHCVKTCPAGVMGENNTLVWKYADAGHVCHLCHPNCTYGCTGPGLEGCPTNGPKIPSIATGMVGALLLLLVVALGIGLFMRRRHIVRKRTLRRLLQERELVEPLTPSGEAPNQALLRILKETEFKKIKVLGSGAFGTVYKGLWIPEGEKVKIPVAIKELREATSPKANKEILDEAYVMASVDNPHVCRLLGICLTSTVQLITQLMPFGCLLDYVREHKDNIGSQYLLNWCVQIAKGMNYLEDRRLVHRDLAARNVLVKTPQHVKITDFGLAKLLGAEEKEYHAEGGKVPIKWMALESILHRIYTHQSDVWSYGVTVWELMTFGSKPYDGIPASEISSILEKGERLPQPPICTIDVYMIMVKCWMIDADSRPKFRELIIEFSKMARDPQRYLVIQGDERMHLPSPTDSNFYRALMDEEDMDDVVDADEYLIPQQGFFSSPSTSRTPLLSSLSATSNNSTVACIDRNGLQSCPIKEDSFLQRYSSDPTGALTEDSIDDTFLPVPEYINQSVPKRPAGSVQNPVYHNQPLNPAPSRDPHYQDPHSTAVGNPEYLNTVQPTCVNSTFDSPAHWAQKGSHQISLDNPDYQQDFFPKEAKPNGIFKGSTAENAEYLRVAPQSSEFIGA

pIC50 (EGFR (human) [1]) | pIC50 (EGFR (human) [2]) | SMILES
7.00 | 8.22 | Fc1cccc(Cn2ncc3cc(Nc4ncnc5ccc(-c6ccn(CCN7CCOCC7)c6)cc45)ccc32)c1
6.44 | 8.52 | Fc1cccc(COc2ccc(Nc3ncnc4ccc(-n5cccc5)cc34)cc2Cl)c1
5.63 | 7.70 | O=C(NCCN1CCOCC1)c1cn(-c2ccc3ncnc(Nc4ccc(OCc5cccc(F)c5)c(Cl)c4)c3c2)cc1CCO
6.68 | 7.59 | CN1CCN(Cc2cn(-c3ccc4ncnc(Nc5ccc(OCc6ccccn6)c(Cl)c5)c4c3)cc2CCO)CC1
5.98 | 7.26 | Fc1cccc(COc2ccc(Nc3ncnc4ccc(-n5cc(CNCCN6CCCC6)c(C(F)(F)F)c5)cc34)cc2Cl)c1
6.62 | 8.10 | Fc1cccc(COc2ccc(Nc3ncnc4ccc(-c5cc(CNCCN6CCOCC6)c[nH]5)cc34)cc2Cl)c1
5.99 | 8.22 | CCN(CC)CCn1ccc(-c2ccc3ncnc(Nc4ccc5c(cnn5Cc5cccc(F)c5)c4)c3c2)c1
6.53 | 8.22 | CN1CCN(C(=O)Cn2ccc(-c3ccc4ncnc(Nc5ccc(OCc6cccc(F)c6)c(Cl)c5)c4c3)c2)CC1
6.11 | 7.65 | CCN(CC)CCNCc1cccn1-c1ccc2ncnc(Nc3ccc(OCc4cccc(F)c4)c(Cl)c3)c2c1
6.28 | 6.93 | OC(CN1CCN(C2CC2)CC1)Cn1ccc(-c2ccc3ncnc(Nc4ccc(OCc5cccc(F)c5)c(Cl)c4)c3c2)c1 (configuration not stated)
6.54 | 7.49 | Fc1cccc(COc2ccc(Nc3ncnc4ccc(-c5ccn(CCCN6CCN(c7cccc(Cl)c7)CC6)c5)cc34)cc2Cl)c1
6.35 | 7.68 | OC(CN1CCCCC1)Cn1ccc(-c2ccc3ncnc(Nc4ccc(OCc5cccc(F)c5)c(Cl)c4)c3c2)c1 (configuration not stated)
7.40 | 8.40 | Fc1cccc(COc2ccc(Nc3ncnc4ccc(-c5ccn(CCN6CCCC6)c5)cc34)cc2Cl)c1
6.46 | 7.64 | CCN(CC)CC(O)Cn1ccc(-c2ccc3ncnc(Nc4ccc(OCc5cccc(F)c5)c(Cl)c4)c3c2)c1 (configuration not stated)
6.41 | 7.15 | CCN(CC)C[C@@H](O)Cn1ccc(-c2ccc3ncnc(Nc4ccc5c(cnn5Cc5cccc(F)c5)c4)c3c2)c1
6.44 | 7.41 | OC(CN1CCC(N2CCCC2)CC1)Cn1ccc(-c2ccc3ncnc(Nc4ccc(OCc5cccc(F)c5)c(Cl)c4)c3c2)c1 (configuration not stated)
5.47 | 7.14 | CNCCn1ccc(-c2ccc3ncnc(Nc4ccc(OCc5cccc(F)c5)c(Cl)c4)c3c2)c1
5.85 | 6.31 | O=S1(=O)CCC(NCCn2ccc(-c3ccc4ncnc(Nc5ccc(OCc6cccc(F)c6)c(Cl)c5)c4c3)c2)CC1
8.00 | 8.22 | Clc1cc(Nc2ncnc3ccc(-n4cccc4)cc23)ccc1OCc1ccccn1
5.70 | 6.35 | O=C(Cn1ccc(-c2ccc3ncnc(Nc4ccc(OCc5cccc(F)c5)c(Cl)c4)c3c2)c1)N1CCN(CC2CC2)CC1
6.08 | 6.54 | COCCCN1CCOC(Cn2ccc(-c3ccc4ncnc(Nc5ccc6c(cnn6Cc6cccc(F)c6)c5)c4c3)c2)C1 (configuration not stated)
6.18 | 7.57 | Fc1cccc(COc2ccc(Nc3ncnc4ccc(-c5ccn(CCN6CCCCCC6)c5)cc34)cc2Cl)c1
6.32 | 7.31 | COCCNCc1cn(-c2ccc3ncnc(Nc4ccc(OCc5cccc(F)c5)c(Cl)c4)c3c2)cc1C(F)(F)F

pIC50 (EGFR (human) [1]) | pIC50 (EGFR (human) [2]) | SMILES
6.77 | 8.30 | OC(CN1CCOCC1)Cn1ccc(-c2ccc3ncnc(Nc4ccc5c(cnn5Cc5cccc(F)c5)c4)c3c2)c1 (configuration not stated)
7.05 | 7.82 | O=C(c1cn(-c2ccc3ncnc(Nc4ccc(OCc5cccc(F)c5)c(Cl)c4)c3c2)cc1CCO)N1CCCC1
6.92 | 6.97 | CN1CCN(CCNC(=O)c2cn(-c3ccc4ncnc(Nc5ccc(OCc6ccccn6)c(Cl)c5)c4c3)cc2CCO)CC1
8.00 | 8.12 | CN1CCN(CCNC(=O)c2cn(-c3ccc4ncnc(Nc5ccc(OCc6cccc(F)c6)c(Cl)c5)c4c3)cc2CCO)CC1
5.81 | 7.77 | O=C(Cn1ccc(-c2ccc3ncnc(Nc4ccc(OCc5cccc(F)c5)c(Cl)c4)c3c2)c1)NCC1(O)CCS(=O)(=O)CC1
6.57 | 7.92 | CS(=O)(=O)CCNCc1cccn1-c1ccc2ncnc(Nc3ccc(OCc4cccc(F)c4)c(Cl)c3)c2c1
6.02 | 6.99 | CC(=O)NC1CCN(C(=O)Cn2ccc(-c3ccc4ncnc(Nc5ccc(OCc6cccc(F)c6)c(Cl)c5)c4c3)c2)CC1
5.81 | 7.62 | OC1CCN(CC(O)Cn2ccc(-c3ccc4ncnc(Nc5ccc6c(cnn6Cc6cccc(F)c6)c5)c4c3)c2)CC1 (configuration not stated)
5.54 | 8.22 | O=S1(=O)CCC(O)(CNCc2cc(-c3ccc4ncnc(Nc5ccc6c(cnn6Cc6cccc(F)c6)c5)c4c3)c[nH]2)CC1
6.80 | 7.49 | CN1CCN(CCNCc2cn(-c3ccc4ncnc(Nc5ccc(OCc6cccc(F)c6)c(Cl)c5)c4c3)cc2C(F)(F)F)CC1
5.44 | 7.96 | CS(=O)(=O)CCNC1CCN(C[C@@H](O)Cn2ccc(-c3ccc4ncnc(Nc5ccc(OCc6cccc(F)c6)c(Cl)c5)c4c3)c2)CC1
6.25 | 7.10 | Fc1cccc(COc2ccc(Nc3ncnc4ccc(-c5ccn(C[C@H]6COCCN6)c5)cc34)cc2Cl)c1
6.89 | 7.22 | CN1CCN(C(=O)c2cn(-c3ccc4ncnc(Nc5ccc(OCc6ccccn6)c(Cl)c5)c4c3)cc2CCO)CC1
6.17 | 8.44 | CCN(CC)CCNC(=O)c1cn(-c2ccc3ncnc(Nc4ccc(OCc5cccc(F)c5)c(Cl)c4)c3c2)cc1CCO
6.37 | 7.66 | OC(CN1CC=CC1)Cn1ccc(-c2ccc3ncnc(Nc4ccc(OCc5cccc(F)c5)c(Cl)c4)c3c2)c1 (configuration not stated)
6.80 | 8.10 | O=C(c1cn(-c2ccc3ncnc(Nc4ccc(OCc5cccc(F)c5)c(Cl)c4)c3c2)cc1CCO)N1CCOCC1
6.15 | 6.94 | O=C(NCC1CCS(=O)(=O)CC1)c1cc(-c2ccc3ncnc(Nc4ccc(OCc5cccc(F)c5)c(Cl)c4)c3c2)c[nH]1
5.38 | 6.22 | OC(CN1CCN(Cc2ccncc2)CC1)Cn1ccc(-c2ccc3ncnc(Nc4ccc5c(cnn5Cc5cccc(F)c5)c4)c3c2)c1 (configuration not stated)
6.66 | 7.27 | OCCc1cn(-c2ccc3ncnc(Nc4ccc(OCc5cccc(F)c5)c(Cl)c4)c3c2)cc1CN1CCCCC1
6.18 | 7.39 | O=C(Cn1ccc(-c2ccc3ncnc(Nc4ccc(OCc5cccc(F)c5)c(Cl)c4)c3c2)c1)N1CCNCC1
6.61 | 6.59 | CS(=O)(=O)N1CCOC(Cn2ccc(-c3ccc4ncnc(Nc5ccc6c(cnn6Cc6cccc(F)c6)c5)c4c3)c2)C1 (configuration not stated)
6.87 | 8.22 | Cn1cccc1-c1ccc2ncnc(Nc3ccc(OCc4cccc(F)c4)c(Cl)c3)c2c1
7.70 | 7.07 and 7.03 | Fc1cccc(COc2ccc(Nc3ncnc4ccc(-n5cc6c(c5)C(=NOCCN5CCOCC5)CC6)cc34)cc2Cl)c1

pIC50 (EGFR (human) [1]) | pIC50 (EGFR (human) [2]) | SMILES
6.20 | 6.89 | CC(=O)N[C@@H]1CCN(C(=O)Cn2ccc(-c3ccc4ncnc(Nc5ccc(OCc6cccc(F)c6)c(Cl)c5)c4c3)c2)C1
6.06 | 6.78 | Fc1cccc(COc2ccc(Nc3ncnc4ccc(-c5ccn(CCc6ccncc6)c5)cc34)cc2Cl)c1
8.52 | 7.49 | OCCc1cn(-c2ccc3ncnc(Nc4ccc(OCc5ccccn5)c(Cl)c4)c3c2)cc1CN1CCCCC1
5.88 | 7.13 | Fc1cccc(COc2ccc(Nc3ncnc4ccc(-c5ccn(C[C@H]6CN7CCC[C@@H]7CO6)c5)cc34)cc2Cl)c1
6.11 | 7.92 | C[C@@H]1CN(C(=O)Cn2ccc(-c3ccc4ncnc(Nc5ccc(OCc6cccc(F)c6)c(Cl)c5)c4c3)c2)C[C@H](C)N1
6.66 | 7.42 | CCN(CC)C[C@H](O)Cn1ccc(-c2ccc3ncnc(Nc4ccc5c(cnn5Cc5cccc(F)c5)c4)c3c2)c1
6.08 | 7.80 | CS(=O)(=O)CCNCc1cn(-c2ccc3ncnc(Nc4ccc(OCc5cccc(F)c5)c(Cl)c4)c3c2)cc1C(F)(F)F
6.05 |  | Fc1cccc(COc2ccc(Nc3ncnc4ccc(-c5ccn(Cc6ccccn6)c5)cc34)cc2Cl)c1
6.28 |  | OC(CN1CCC(N2CCCCC2)CC1)Cn1ccc(-c2ccc3ncnc(Nc4ccc5c(cnn5Cc5cccc(F)c5)c4)c3c2)c1 (configuration not stated)
6.26 |  | OC(CN1CCSC1)Cn1ccc(-c2ccc3ncnc(Nc4ccc(OCc5cccc(F)c5)c(Cl)c4)c3c2)c1 (configuration not stated)
6.25 |  | O=C(NCCCN1CCOCC1)c1cn(-c2ccc3ncnc(Nc4ccc(F)c(Cl)c4)c3c2)cc1CCO
6.30 |  | O=C(Cn1ccc(-c2ccc3ncnc(Nc4ccc(OCc5cccc(F)c5)c(Cl)c4)c3c2)c1)N1CCSC1
6.57 |  | CCOC(=O)N1CCN(CC(O)Cn2ccc(-c3ccc4ncnc(Nc5ccc6c(cnn6Cc6cccc(F)c6)c5)c4c3)c2)CC1 (configuration not stated)
5.92 |  | Fc1cccc(COc2ccc(Nc3ncnc4ccc(-c5ccn(CCc6ccccn6)c5)cc34)cc2Cl)c1
6.15 |  | Fc1cccc(Cn2ncc3cc(Nc4ncnc5ccc(-c6ccn(CC7CNCCO7)c6)cc45)ccc32)c1 (configuration not stated)
6.37 |  | Fc1cccc(Cn2ncc3cc(Nc4ncnc5ccc(-c6ccn(CCCN7CCOCC7)c6)cc45)ccc32)c1
6.35 |  | Fc1cccc(COc2ccc(Nc3ncnc4ccc(-c5ccn(CCN6CCC(N7CCCCC7)CC6)c5)cc34)cc2Cl)c1
5.87 |  | OC1CCN(C[C@@H](O)Cn2ccc(-c3ccc4ncnc(Nc5ccc(OCc6cccc(F)c6)c(Cl)c5)c4c3)c2)CC1
6.46 |  | CC(=O)N[C@@H]1CCN(CC(O)Cn2ccc(-c3ccc4ncnc(Nc5ccc6c(cnn6Cc6cccc(F)c6)c5)c4c3)c2)C1 (some centres not stated)
6.82 |  | CN(C)Cc1cn(-c2ccc3ncnc(Nc4ccc(F)c(Cl)c4)c3c2)cc1CCO
6.42 |  | Fc1cccc(COc2ccc(Nc3ncnc4ccc(-c5ccn(C[C@H]6CCO6)c5)cc34)cc2Cl)c1
6.89 |  | CC(Nc1ncnc2ccc(-n3cc(CCO)c(CN4CCCC4)c3)cc12)c1ccccc1 (configuration not stated)
6.15 |  | OCCN1CCN(CC(O)Cn2ccc(-c3ccc4ncnc(Nc5ccc(OCc6cccc(F)c6)c(Cl)c5)c4c3)c2)CC1 (configuration not stated)
